Data as given in patent US20220096717A1, “AXITINIB-LOADED NANOFIBER MEMBRANE, PREPARATION METHOD FOR THE SAME, AND ITS USE OF ANTI-ADHESION AFTER A SURGERY” (SHANGHAI CHILDREN'S MEDICAL CENTER, SHANGHAI JIAO TONG …, priority 2020, published 2022).

Assay: Solubility of Axitinib (FIG. 1)
Type: physicochemical
Settings: FIG. 1A
Procedure: FIG. 1: pictures showing solubility of Axitinib. A is a picture in which Axitinib is dissolved in water and trifluoroethanol; B is a picture in which gelatin and polycaprolactone are dissolved in trifluoroethanol with and without the addition of Axitinib to the electrospinning solution.
Stirring the solution to forms a milky solution. When it stays for a long period of time, granular precipitation may occur. […] 0.25 g of gelatin and 0.25 g of polycaprolactone were dissolved in 5 ml of trifluoroethanol containing 20 μl of acetic acid to form a transparent solution, and 50 mg of Axitinib was added to form a light yellow transparent solution (B).

CNC(=O)c1ccccc1Sc1ccc2c(/C=C/c3ccccn3)n[nH]c2c1 [Axitinib]
solubility in trifluoroethanol (TFE) (trifluoroethanol): quickly dissolved
solubility in water (water): poorly soluble
